Key:
Assay in all cases: whole plant or invertebrate
Type in all cases: in vivo
Aphis craccivora = conditions: 500 ppm; wingless adults, immersion 5 seconds, counted after 24 hours
How it was run: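 Mortality scored 24 h after treatment as the reduction in live aphids versus a 0.05% Tween-80 control; three replicates, 23° C. Treatment was a 5 s immersion of wingless adults on bean sprouts in 500 ppm test solution containing 0.05% Tween-80, followed by air-drying.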

Spodoptera exigua = conditions: 500 ppm; 2nd-instar larvae, leaf immersion feeding
How it was run: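 Leaf immersion feeding: second-instar larvae (about 35 per vessel, triplicate) kept at 28° C on discs treated with 500 ppm test solution in 0.05% Tween-80. Mortality at 24 h, calculated relative to surviving larvae in the solvent control.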

Solenopsis invicta = conditions: 100 ppm, water test tube poison-feeding
How it was run: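 Mortality (%) of Solenopsis invicta, computed against live counts in control tubes, was recorded 24 h and 72 h after treatment at 25 °C. Compound was offered by oral feeding in test tubes at 100 ppm, diluted from a 10 g/L DMSO stock into water with 5% honey and 0.05% Tween-80.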

Plutella xylostella = conditions: 500 ppm; 2nd-instar larvae, leaf immersion feeding
How it was run: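 Leaf immersion feeding test: 2nd-instar larvae (about 35 per vessel, 3 replicates) kept at 28° C. on 1.0 cm cabbage discs soaked 5 s in a 500 ppm solution with 0.05% Tween-80. Mortality after 24 h of exposure, calculated relative to live larvae in the Tween-80 control.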

SMILES	Aphis craccivora Mortality (%) (Aphis craccivora)	Spodoptera exigua Mortality (%) (Spodoptera exigua)	Solenopsis invicta Mortality (%) 24 h (Solenopsis invicta)	Solenopsis invicta Mortality (%) 72 h (Solenopsis invicta)	Plutella xylostella Mortality (%) (Plutella xylostella)
COC(=O)CC1(C(=O)OC)Nc2c([S+](C)[O-])c(C#N)nn2-c2c(Cl)cc(C(F)(F)F)cc21 (stereo not drawn) [d-13]	99%	81%	26%	89%	82%
CC[S+]([O-])c1c(C#N)nn2c1NC(CC(=O)OC)(C(=O)OC)c1cc(C(F)(F)F)cc(Cl)c1-2 (stereo not drawn) [d-14]	100%	89%	24%	100%	90%
COC(=O)C1(CC(N)=O)Nc2c([S+]([O-])C(F)(F)F)c(C#N)nn2-c2c(Cl)cc(C(F)(F)F)cc21 (stereo not drawn) [d-20]	100%	100%	14%	100%	100%
COC(=O)C1(CC(=O)OCC(F)(F)F)Nc2c([S+]([O-])C(F)(F)F)c(C#N)nn2-c2c(Cl)cc(C(F)(F)F)cc21 (stereo not drawn) [d-27]	100%	100%	14%	100%	100%
COC(=O)C1(CC(C)=O)Nc2c([S+]([O-])C(F)(F)F)c(C#N)nn2-c2c(Cl)cc(C(F)(F)F)cc21 (stereo not drawn) [d-33]	100%	99%	26%	100%	100%
COC(=O)C1(CBr)Nc2c([S+]([O-])C(F)(F)F)c(C#N)nn2-c2c(Cl)cc(C(F)(F)F)cc21 (stereo not drawn) [d-34]	100%	95%	25%	93%	90%
COC(=O)C1(CC(F)(F)F)Nc2c([S+]([O-])C(F)(F)F)c(C#N)nn2-c2c(Cl)cc(C(F)(F)F)cc21 (stereo not drawn) [d-35]	100%	89%	30%	100%	90%
CCOC(=O)C1(CC(=O)OC(C(F)(F)F)C(F)(F)F)Nc2c([S+]([O-])C(F)(F)F)c(C#N)nn2-c2c(Cl)cc(C(F)(F)F)cc21 (stereo not drawn) [d-42]	100%	100%	31%	100%	100%
CC(=O)CC1(C(C)=O)Nc2c([S+]([O-])C(F)(F)F)c(C#N)nn2-c2c(Cl)cc(C(F)(F)F)cc21 (stereo not drawn) [d-46]	100%	90%	14%	90%	95%
CC(=O)C1(CC(F)(F)F)Nc2c([S+]([O-])C(F)(F)F)c(C#N)nn2-c2c(Cl)cc(C(F)(F)F)cc21 (stereo not drawn) [d-48]	100%	90%	26%	100%	96%
CC(=O)C1(CC(=O)C(F)(F)F)Nc2c([S+]([O-])C(F)(F)F)c(C#N)nn2-c2c(Cl)cc(C(F)(F)F)cc21 (stereo not drawn) [d-49]	100%	100%	29%	100%	100%
N#Cc1nn2c(c1[S+]([O-])C(F)(F)F)NC(CC(=O)C(F)(F)F)(C(=O)C(F)(F)F)c1cc(C(F)(F)F)cc(Cl)c1-2 (stereo not drawn) [d-50]	100%	90%	26%	93%	100%
N#Cc1nn2c(c1[S+]([O-])C(F)(F)F)NC(Cc1ccccc1)(C(=O)C(F)(F)F)c1cc(C(F)(F)F)cc(Cl)c1-2 (stereo not drawn) [d-52]	100%	100%	24%	100%	100%
COC(=O)CC1(C(=O)C(F)(F)F)Nc2c([S+]([O-])C(F)(F)F)c(C#N)nn2-c2c(Cl)cc(C(F)(F)F)cc21 (stereo not drawn) [d-54]	100%	99%	21%	99%	100%
N#CCC1(Cl)Nc2c([S+]([O-])C(F)(F)F)c(C#N)nn2-c2c(Cl)cc(C(F)(F)F)cc21 (stereo not drawn) [d-60]	90%	90%	24%	90%	96%
N#Cc1nn2c(c1[S+]([O-])C(F)(F)F)NC(Br)(CC(=O)C(F)(F)F)c1cc(C(F)(F)F)cc(Cl)c1-2 (stereo not drawn) [d-63]	100%	95%	20%	90%	100%
N#Cc1nn2c(c1[S+]([O-])C(F)(F)F)NC(C#N)(CC(F)(F)F)c1cc(C(F)(F)F)cc(Cl)c1-2 (stereo not drawn) [d-65]	100%	100%	24%	90%	100%
COC(=O)CC1(C#N)Nc2c([S+]([O-])C(F)(F)F)c(C#N)nn2-c2c(Cl)cc(C(F)(F)F)cc21 (stereo not drawn) [d-67]	100%	90%	41%	99%	100%
N#Cc1nn2c(c1[S+]([O-])C(F)(F)F)NC(CC(F)(F)F)(C(F)(F)F)c1cc(C(F)(F)F)cc(Cl)c1-2 (stereo not drawn) [d-69]	100%	86%	44%	100%	90%
N#CCC1(C(F)(F)F)Nc2c([S+]([O-])C(F)(F)F)c(C#N)nn2-c2c(Cl)cc(C(F)(F)F)cc21 (stereo not drawn) [d-70]	99%	90%	20%	98%	91%
CCCCOC(=O)CC1(C(=O)OCCCC)Nc2c([S+]([O-])C(F)(F)F)c(C#N)nn2-c2c(Cl)cc(C(F)(F)F)cc21 (stereo not drawn) [d-72]	99%	85%	26%	76%	90%
N#Cc1nn2c(c1[S+]([O-])C(F)(F)F)NC(C(=O)C(F)(F)F)c1cc(C(F)(F)F)cc(Cl)c1-2 (stereo not drawn) [d-81]	100%	90%	35%	100%	99%
N#Cc1nn2c(c1[S+]([O-])C(F)(F)F)NC(C#N)c1cc(C(F)(F)F)cc(Cl)c1-2 (stereo not drawn) [d-82]	100%	89%	25%	90%	95%
N#Cc1nn2c(c1[S+]([O-])C(F)(F)F)NC(CC(F)(F)F)c1cc(C(F)(F)F)cc(Cl)c1-2 (stereo not drawn) [d-85]	100%	100%	30%	100%	100%
N#Cc1nn2c(c1[S+]([O-])C(F)(F)F)NC(Cl)c1cc(C(F)(F)F)cc(Cl)c1-2 (stereo not drawn) [d-90]	90%	80%	16%	85%	82%
COC(=O)CC1Nc2c([S+]([O-])C(F)(F)F)c(C(F)(F)F)nn2-c2c(Cl)cc(C(F)(F)F)cc21 (stereo not drawn) [d-98]	100%	100%	20%	99%	100%
O=C(CC1Nc2c([S+]([O-])C(F)(F)F)c(C(F)(F)F)nn2-c2c(Cl)cc(C(F)(F)F)cc21)C(F)(F)F (stereo not drawn) [d-103]	100%	98%	26%	93%	100%
[O-][S+](c1c(C(F)(F)F)nn2c1NC(C(F)(F)F)c1cc(C(F)(F)F)cc(Cl)c1-2)C(F)(F)F (stereo not drawn) [d-107]	100%	100%	24%	100%	100%

Source: US11401271B2, “Fused heterocyclic compound, pyrazole-ring-containing fused heterocyclic compound, agricultural composition containing thereof, and method of using the composition” (SOUTH CHINA AGRICULTURAL UNIVERSITY, priority 2017, dated 2022)
